Experimental data published in patent US20230219986A1, “NOVEL AMINOPYRIMIDINE EGFR INHIBITOR” (QILU PHARMACEUTICAL CO., LTD., priority 2020, published 2023).
pIC50: −log10 of the molar value. Read-outs that look alike come from different tables or passages of the source.

What was measured:
[1] = test system: EGFR wild-type cell line A431; assay: Cell proliferation inhibition experiment (CellTiter-Glo), A431; format: cell-based; conditions: Homo sapiens, A431 cells, Cell Titer-Glo, read-out: A431 EGFR WT IC50
Method in brief: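 A431 cells, 800 per well, were cultured 24 h and then exposed to serially diluted compound (0.1% DMSO final) for 72 h at 37° C., 5% CO2.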

[2] = biological target: Ba/F3 L858R/T790M/C797S EGFR triple mutant cell line (Homo sapiens, UniProt P00533, T790M/C797S/L858R, cells depend on it); assay: Cell proliferation inhibition experiment (CellTiter-Glo), Ba/F3 L858R/T790M/C797S; format: cell-based; conditions: 72 hours, Cell Titer-Glo, read-out: Ba/F3 (L858R/T790M/C797S) IC50
[3] = biological target: Ba/F3 De119/T790M/C797S EGFR triple mutant cell line (Homo sapiens, UniProt P00533, T790M/C797S, cells depend on it, form not given); assay: Cell proliferation inhibition experiment (CellTiter-Glo), Ba/F3 De119/T790M/C797S; format: cell-based; conditions: Ba/F3 Del19/T790M/C797S EGFR triple mutant cells, 72 hours, Cell Titer-Glo; read-out: Ba/F3 (Del19/T790M/C797S) IC50
[4] = biological target: T1, L858R/T790M/C797S triple mutant EGFR (Homo sapiens, UniProt P00533, C797S/L858R/T790M); assay: Enzymology experiment in vitro (HTRF/FRET kinase activity), L858R/T790M/C797S triple mutant EGFR; format: biochemical; conditions: HTRF KinEASE-TK; for pIC50: read-out: EGFR (L858R/T790M/C797S) IC50
T1 construct: purchased Signalchem
Method in brief: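 HTRF KinEASE-TK format: EGFR enzyme preincubated with compound 10 min at room temperature, then peptide substrate plus ATP added for 40 min. Detection with EDTA, XL665-streptavidin and Eu³⁺-labeled antibody for 1 h.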

wild-type EGFR = biological target: T2, wild-type EGFR (Homo sapiens, UniProt P00533); assay: Enzymology experiment in vitro (HTRF/FRET kinase activity), wild-type EGFR; format: biochemical; conditions: HTRF KinEASE-TK; for pIC50: read-out: EGFR (WT) IC50
T2 construct: purchased Signalchem
Description: 1. Experimental Materials
HTRF KinEASE-TK kit detection reagent, purchased from Cisbio
1) 10 nL of gradient diluted compound was transferred into a 384-well experimental plate using Echo 550 (Labcyte).
2) 5 μL of 2×EGFR enzyme solution was added to the 384-well experimental plate and incubated at room temperature for 10 minutes.
3) 5 μL of 2× substrate solution containing polypeptide and ATP was added to the 384-well experimental plate and incubated at room temperature for 40 minutes.
4) 10 μL of detection solution containing EDTA, XL665-labeled streptavidin and Eu^3+-labeled antibody was added thereto and incubated at room temperature for 1 hour.

T2 sequence (P00533 25-1210): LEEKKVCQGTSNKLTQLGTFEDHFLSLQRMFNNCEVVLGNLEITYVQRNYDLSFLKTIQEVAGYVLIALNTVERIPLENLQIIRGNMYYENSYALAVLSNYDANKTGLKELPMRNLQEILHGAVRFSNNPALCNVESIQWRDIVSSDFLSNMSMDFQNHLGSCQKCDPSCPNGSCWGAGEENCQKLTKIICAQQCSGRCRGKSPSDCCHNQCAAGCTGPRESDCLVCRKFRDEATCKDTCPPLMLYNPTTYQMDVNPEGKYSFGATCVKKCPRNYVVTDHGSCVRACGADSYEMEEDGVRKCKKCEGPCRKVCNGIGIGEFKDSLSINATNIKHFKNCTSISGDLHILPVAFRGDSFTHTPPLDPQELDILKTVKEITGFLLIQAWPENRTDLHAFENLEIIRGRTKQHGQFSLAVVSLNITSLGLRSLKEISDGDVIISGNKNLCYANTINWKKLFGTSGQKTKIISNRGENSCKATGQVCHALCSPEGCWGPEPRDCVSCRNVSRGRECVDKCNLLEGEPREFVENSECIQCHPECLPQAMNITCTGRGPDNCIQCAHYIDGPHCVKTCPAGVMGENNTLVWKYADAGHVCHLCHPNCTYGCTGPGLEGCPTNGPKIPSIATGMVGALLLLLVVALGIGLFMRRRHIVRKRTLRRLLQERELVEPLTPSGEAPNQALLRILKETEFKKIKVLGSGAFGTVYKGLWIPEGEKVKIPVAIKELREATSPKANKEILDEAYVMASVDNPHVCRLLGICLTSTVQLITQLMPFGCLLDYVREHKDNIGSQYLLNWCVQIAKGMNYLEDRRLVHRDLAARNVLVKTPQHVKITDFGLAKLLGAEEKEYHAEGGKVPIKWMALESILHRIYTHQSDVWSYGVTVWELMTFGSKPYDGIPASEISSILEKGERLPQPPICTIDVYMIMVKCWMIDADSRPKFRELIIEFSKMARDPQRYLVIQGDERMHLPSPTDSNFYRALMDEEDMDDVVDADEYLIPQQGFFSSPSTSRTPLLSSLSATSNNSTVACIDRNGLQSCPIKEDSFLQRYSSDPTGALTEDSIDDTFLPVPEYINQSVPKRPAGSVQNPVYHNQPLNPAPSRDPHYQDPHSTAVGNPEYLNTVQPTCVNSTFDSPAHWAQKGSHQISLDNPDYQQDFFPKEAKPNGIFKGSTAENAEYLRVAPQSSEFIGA
T1 sequence (P00533 25-1210 T790M/C797S/L858R): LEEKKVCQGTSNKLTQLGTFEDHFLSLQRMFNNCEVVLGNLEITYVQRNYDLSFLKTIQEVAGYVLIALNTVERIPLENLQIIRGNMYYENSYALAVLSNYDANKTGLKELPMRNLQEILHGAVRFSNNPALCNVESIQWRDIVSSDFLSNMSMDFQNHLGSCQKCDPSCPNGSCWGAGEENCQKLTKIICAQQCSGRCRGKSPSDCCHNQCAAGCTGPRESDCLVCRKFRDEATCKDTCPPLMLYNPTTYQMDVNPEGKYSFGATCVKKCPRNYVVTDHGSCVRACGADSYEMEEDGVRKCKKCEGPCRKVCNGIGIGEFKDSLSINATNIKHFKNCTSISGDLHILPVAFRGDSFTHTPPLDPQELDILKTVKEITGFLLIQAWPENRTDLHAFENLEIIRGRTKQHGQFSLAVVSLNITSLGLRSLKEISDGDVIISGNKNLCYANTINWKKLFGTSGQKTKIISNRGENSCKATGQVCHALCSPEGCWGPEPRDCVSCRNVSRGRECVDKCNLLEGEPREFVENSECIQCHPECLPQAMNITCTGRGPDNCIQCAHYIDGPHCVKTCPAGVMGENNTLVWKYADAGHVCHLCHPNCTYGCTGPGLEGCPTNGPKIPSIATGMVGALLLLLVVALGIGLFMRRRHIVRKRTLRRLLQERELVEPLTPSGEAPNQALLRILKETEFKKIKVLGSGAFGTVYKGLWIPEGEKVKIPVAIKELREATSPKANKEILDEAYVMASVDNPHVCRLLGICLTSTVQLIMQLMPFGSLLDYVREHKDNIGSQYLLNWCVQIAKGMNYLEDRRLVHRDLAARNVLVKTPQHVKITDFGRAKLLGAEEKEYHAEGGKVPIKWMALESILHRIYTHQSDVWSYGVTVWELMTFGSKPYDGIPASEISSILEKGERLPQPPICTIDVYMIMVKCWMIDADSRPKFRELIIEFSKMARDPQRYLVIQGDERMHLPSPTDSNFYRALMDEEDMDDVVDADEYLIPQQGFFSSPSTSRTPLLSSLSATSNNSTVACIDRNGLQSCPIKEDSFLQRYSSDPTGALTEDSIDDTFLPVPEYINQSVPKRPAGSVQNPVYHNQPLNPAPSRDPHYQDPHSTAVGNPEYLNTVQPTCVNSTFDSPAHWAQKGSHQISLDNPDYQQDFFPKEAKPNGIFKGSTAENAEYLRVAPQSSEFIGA
Ba/F3 L858R/T790M/C797S EGFR triple mutant cell line, sequence (P00533 whole entry T790M/C797S/L858R): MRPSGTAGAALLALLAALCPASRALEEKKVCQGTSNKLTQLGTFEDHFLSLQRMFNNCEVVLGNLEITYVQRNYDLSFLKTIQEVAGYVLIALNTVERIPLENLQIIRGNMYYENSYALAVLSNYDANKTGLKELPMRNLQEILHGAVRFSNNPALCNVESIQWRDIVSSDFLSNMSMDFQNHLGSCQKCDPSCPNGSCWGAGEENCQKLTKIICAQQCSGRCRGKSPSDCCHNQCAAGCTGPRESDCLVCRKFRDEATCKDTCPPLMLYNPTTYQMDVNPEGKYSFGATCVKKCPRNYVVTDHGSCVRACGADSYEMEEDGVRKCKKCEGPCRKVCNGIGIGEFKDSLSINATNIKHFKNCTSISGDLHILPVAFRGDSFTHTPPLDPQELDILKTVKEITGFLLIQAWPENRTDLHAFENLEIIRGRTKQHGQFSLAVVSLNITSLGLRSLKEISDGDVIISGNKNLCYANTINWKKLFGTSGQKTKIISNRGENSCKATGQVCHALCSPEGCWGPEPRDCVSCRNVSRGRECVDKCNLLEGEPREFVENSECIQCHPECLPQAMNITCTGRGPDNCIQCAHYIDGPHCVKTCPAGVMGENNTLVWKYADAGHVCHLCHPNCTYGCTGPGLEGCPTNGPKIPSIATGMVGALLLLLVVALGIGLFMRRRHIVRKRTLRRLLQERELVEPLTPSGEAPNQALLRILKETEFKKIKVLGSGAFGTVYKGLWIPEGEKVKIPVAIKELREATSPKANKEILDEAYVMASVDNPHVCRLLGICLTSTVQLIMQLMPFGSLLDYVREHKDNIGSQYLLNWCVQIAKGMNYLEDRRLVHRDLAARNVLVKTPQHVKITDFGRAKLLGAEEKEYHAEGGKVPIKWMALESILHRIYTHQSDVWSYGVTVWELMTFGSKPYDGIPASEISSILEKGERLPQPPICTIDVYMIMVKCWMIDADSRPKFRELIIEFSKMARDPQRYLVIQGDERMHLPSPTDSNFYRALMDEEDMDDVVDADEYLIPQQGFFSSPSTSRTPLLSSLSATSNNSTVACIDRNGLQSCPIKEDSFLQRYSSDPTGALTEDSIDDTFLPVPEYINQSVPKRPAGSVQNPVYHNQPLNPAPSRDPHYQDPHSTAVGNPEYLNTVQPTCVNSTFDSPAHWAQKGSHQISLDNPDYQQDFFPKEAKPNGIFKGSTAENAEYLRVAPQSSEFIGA
Ba/F3 De119/T790M/C797S EGFR triple mutant cell line, sequence (P00533 with tags, fused parts or gaps DEL746-750/T790M/C797S, form open): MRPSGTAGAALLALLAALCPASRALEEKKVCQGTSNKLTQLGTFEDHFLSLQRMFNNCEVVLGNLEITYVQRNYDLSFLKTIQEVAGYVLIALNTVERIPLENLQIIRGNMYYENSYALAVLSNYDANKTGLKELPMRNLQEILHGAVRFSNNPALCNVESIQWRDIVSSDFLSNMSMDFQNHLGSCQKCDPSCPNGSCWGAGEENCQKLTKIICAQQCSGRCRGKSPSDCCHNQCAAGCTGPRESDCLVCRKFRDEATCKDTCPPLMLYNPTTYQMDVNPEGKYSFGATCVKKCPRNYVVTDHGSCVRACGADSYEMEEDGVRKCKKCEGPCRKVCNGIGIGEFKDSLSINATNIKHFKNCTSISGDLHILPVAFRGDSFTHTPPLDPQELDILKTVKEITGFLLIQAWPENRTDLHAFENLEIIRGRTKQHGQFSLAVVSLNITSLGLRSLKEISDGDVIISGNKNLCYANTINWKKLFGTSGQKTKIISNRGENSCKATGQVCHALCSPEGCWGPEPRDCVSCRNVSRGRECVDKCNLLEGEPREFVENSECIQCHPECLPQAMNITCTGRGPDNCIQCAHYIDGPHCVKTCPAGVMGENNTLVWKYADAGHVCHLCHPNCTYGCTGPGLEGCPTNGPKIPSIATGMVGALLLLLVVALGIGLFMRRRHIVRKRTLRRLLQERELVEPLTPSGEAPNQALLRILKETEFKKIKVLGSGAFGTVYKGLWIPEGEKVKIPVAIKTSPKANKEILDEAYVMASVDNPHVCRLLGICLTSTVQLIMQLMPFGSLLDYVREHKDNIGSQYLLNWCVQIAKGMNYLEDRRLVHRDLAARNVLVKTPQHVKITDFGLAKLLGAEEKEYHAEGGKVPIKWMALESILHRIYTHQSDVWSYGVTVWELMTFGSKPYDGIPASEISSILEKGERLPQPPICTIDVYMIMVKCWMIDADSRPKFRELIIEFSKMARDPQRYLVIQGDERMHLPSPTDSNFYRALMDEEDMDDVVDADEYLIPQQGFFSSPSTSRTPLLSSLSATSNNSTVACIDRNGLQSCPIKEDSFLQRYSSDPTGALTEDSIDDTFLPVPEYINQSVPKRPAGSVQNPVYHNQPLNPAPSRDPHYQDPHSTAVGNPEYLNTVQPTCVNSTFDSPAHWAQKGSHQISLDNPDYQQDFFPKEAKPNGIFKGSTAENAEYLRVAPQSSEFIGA

Row | SMILES | pIC50 ([1]; A-431, 72 h) | GI50 [2] | GI50 [3] | pIC50 [4] | pIC50 (wild-type EGFR) | pIC50 ([1]; A-431, 72 hours) | IC50 ([4]; EGFR (L858R/T790M/C797S) IC50(nM)) | IC50 (wild-type EGFR; EGFR (WT) IC50(nM))
1 | COc1cc(N2CCN(C(C)C)CC2)c(-c2cnn(C)c2)cc1Nc1ncc(Br)c(Nc2ccc3nccnc3c2P(C)(C)=O)n1 [Compound 88, (6-((5-bromo-2-((4-(4-isopropylpiperazin-1-yl)-2-methoxy-5-(1-methyl-1H-pyrazol-4-yl)phenyl)amino)pyrimidin-4-yl)amino)quinoxalin-5-yl)dimethylphosphine oxide] | 7.39 | 4.45 nM | 2.18 nM | 10.05 | 8.37 | – | – | –
2 | COc1cc(N2CCOCC2)c(-c2cnn(C)c2)cc1Nc1nc(Nc2ccccc2P(C)(C)=O)c2ccccc2n1 [compound 3] | 5.65 | 444 nM | 281 nM | 7.66 | 5.90 | – | – | –
3 | COc1cc(N2CCOCC2)c(-c2cnn(C)c2)cc1Nc1ncc(C)c(Nc2ccc3nccnc3c2P(C)(C)=O)n1 [compound 4] | 6.71 | 13.6 nM | 2.38 nM | 9.55 | 8.85 | – | – | –
4 | COc1ccc(-c2cnn(C)c2)cc1Nc1ncc(Br)c(Nc2ccc3nccnc3c2P(C)(C)=O)n1 [compound 5] | 6.85 | 12.7 nM | 3.71 nM | 10.52 | 8.09 | – | – | –
5 | COc1ccc(-c2cnoc2)cc1Nc1ncc(Br)c(Nc2ccc3nccnc3c2P(C)(C)=O)n1 [compound 9] | 6.35 | 110 nM | 55 nM | 9.06 | 7.12 | – | – | –
6 | COc1cc(N2CCC(N(C)C)C2)c(-c2cnn(C)c2)cc1Nc1ncc(Br)c(Nc2ccc3nccnc3c2P(C)(C)=O)n1 (centres unmarked) [compound 10] | 7.33 | 10.7 nM | 6.06 nM | 10.00 | 8.34 | – | – | –
7 | COc1cc(N2CC3CC2CN3C)c(-c2cnn(C)c2)cc1Nc1ncc(Br)c(Nc2ccc3nccnc3c2P(C)(C)=O)n1 (centres unmarked) [compound 11] | 6.80 | 224 nM | 83.4 nM | 10.15 | 7.92 | – | – | –
8 | COc1cc(N2CCCN(C)CC2)c(-c2cnn(C)c2)cc1Nc1ncc(Br)c(Nc2ccc3nccnc3c2P(C)(C)=O)n1 [compound 12] | 7.12 | 45.9 nM | 6.32 nM | 10.30 | 8.80 | – | – | –
9 | COc1cc(N2CCN(C(C)=O)CC2)c(-c2cnn(C)c2)cc1Nc1ncc(Br)c(Nc2ccc3nccnc3c2P(C)(C)=O)n1 [compound 14] | 6.82 | 13.6 nM | 5.98 nM | 9.82 | 8.97 | – | – | –
10 | COc1cc(N2CCC3(CC2)COC3)c(-c2cnn(C)c2)cc1Nc1ncc(Br)c(Nc2ccc3nccnc3c2P(C)(C)=O)n1 [compound 15] | 6.75 | 15.6 nM | 4.62 nM | > 10.30 | 7.92 | – | – | –
11 | COc1cc(N2CCC(N3CCN(C)CC3)CC2)c(-c2cnn(C)c2)cc1Nc1ncc(Br)c(Nc2ccc3nccnc3c2P(C)(C)=O)n1 [compound 18] | 7.34 | 20.9 nM | 2.87 nM | 10.10 | 8.90 | – | – | –
12 | COc1cc(N2CCOCC2)c(-c2cnoc2)cc1Nc1ncc(Br)c(Nc2ccc3nccnc3c2P(C)(C)=O)n1 [compound 19] | 6.31 | 68.8 nM | 6.71 nM | 9.77 | 7.41 | – | – | –
13 | COc1ccc(-n2cccn2)cc1Nc1ncc(Br)c(Nc2ccc3nccnc3c2P(C)(C)=O)n1 [compound 20] | 5.80 | 629 nM | 277 nM | 8.04 | 6.75 | – | – | –
14 | COc1cc(N(C)CCN(C)C)c(-c2cnn(C)c2)cc1Nc1ncc(Br)c(Nc2ccc3nccnc3c2P(C)(C)=O)n1 [compound 21] | 7.19 | 18.1 nM | 4.03 nM | 10.22 | 8.80 | – | – | –
15 | COc1c(Nc2ncc(Br)c(Nc3ccc4nccnc4c3P(C)(C)=O)n2)cc(-c2cnn(C)c2)c(N2CCOCC2)c1F [compound 23] | 6.71 | 30.3 nM | 8.67 nM | 8.72 | 7.39 | – | – | –
16 | CCOP(C)(=O)c1c(Nc2nc(Nc3cc(-c4cnn(C)c4)c(N4CCOCC4)c(F)c3OC)ncc2Br)ccc2nccnc12 (centres unmarked) [compound 24] | – | 139 nM | 45.2 nM | – | – | 6.25 | 11.4 nM | 346 nM
17 | COc1cc(N2CCOCC2)c(-c2cnn(C)c2)cc1Nc1ncc(C(F)(F)F)c(Nc2ccc3nccnc3c2P(C)(C)=O)n1 [compound 25] | 6.80 | 8.64 nM | 2.41 nM | 9.72 | 7.73 | – | – | –
18 | COc1cc(N2CCC(OC)CC2)c(-c2cnn(C)c2)cc1Nc1ncc(Br)c(Nc2ccc3nccnc3c2P(C)(C)=O)n1 [compound 26] | 6.82 | 4.25 nM | 1.22 nM | 9.31 | 8.24 | – | – | –
19 | COCCN(C)c1cc(OC)c(Nc2ncc(Br)c(Nc3ccc4nccnc4c3P(C)(C)=O)n2)cc1-c1cnn(C)c1 [compound 28] | 6.44 | 13.7 nM | 4.73 nM | 9.89 | 7.81 | – | – | –
20 | CN(C)c1c(-c2cnn(C)c2)cc(Nc2ncc(Br)c(Nc3ccc4nccnc4c3P(C)(C)=O)n2)c2c1CCO2 [compound 29] | 6.92 | 4.25 nM | 1.29 nM | 10.22 | 8.47 | – | – | –
21 | COc1ncc(-c2cnn(C)c2)cc1Nc1ncc(Br)c(Nc2ccc3nccnc3c2P(C)(C)=O)n1 [compound 30] | 6.55 | 62.6 nM | 12.1 nM | 9.00 | 7.25 | – | – | –
22 | COc1cc(N(C)C)c(-c2cnn(C)c2)cc1Nc1ncc(Br)c(Nc2ccc3nccnc3c2P(C)(C)=O)n1 [compound 32] | 6.68 | 5.45 nM | 0.98 nM | 9.66 | 8.51 | – | – | –
23 | Cn1cc(-c2cc(Nc3ncc(Br)c(Nc4ccc5nccnc5c4P(C)(C)=O)n3)c(OCC(F)(F)F)nc2N2CCOCC2)cn1 [compound 34] | 6.33 | 8.94 nM | 2.04 nM | 9.57 | 7.82 | – | – | –
24 | CCOc1nc(N2CCOCC2)c(-c2cnn(C)c2)cc1Nc1ncc(Br)c(Nc2ccc3nccnc3c2P(C)(C)=O)n1 [compound 36] | 6.49 | 17.7 nM | 2.63 nM | 9.27 | 7.66 | – | – | –
25 | COc1nc(N2CCOCC2)c(-c2cn(C)nc2C)cc1Nc1ncc(Br)c(Nc2ccc3nccnc3c2P(C)(C)=O)n1 [compound 37] | 5.94 | 65.6 nM | 32.6 nM | 8.50 | 6.57 | – | – | –
